# Experimental data taken from PMC4184701 (Pharmacology Research & Perspectives, 2014).
# Several values for one entry are separate records, joined by “and”; a condition that tells them apart may be missing. Equal entries are not always repeated. Where two headings read alike, the source gives them in different places.
# Columns and labels:
# THP-1 cells [1] = experiment: Aβ1-42 oligomer-induced cytotoxicity, MTT assay, THP-1 cells; type: cell-based; conditions: Homo sapiens, read-out: IC50 Aβ1-42 oligomer toxicity THP-1 cells
# BACE1 [2] = molecular target: T1, BACE1 (Homo sapiens, UniProt P56817); conditions: cited from earlier work
# T1 sequence (P56817 46-501): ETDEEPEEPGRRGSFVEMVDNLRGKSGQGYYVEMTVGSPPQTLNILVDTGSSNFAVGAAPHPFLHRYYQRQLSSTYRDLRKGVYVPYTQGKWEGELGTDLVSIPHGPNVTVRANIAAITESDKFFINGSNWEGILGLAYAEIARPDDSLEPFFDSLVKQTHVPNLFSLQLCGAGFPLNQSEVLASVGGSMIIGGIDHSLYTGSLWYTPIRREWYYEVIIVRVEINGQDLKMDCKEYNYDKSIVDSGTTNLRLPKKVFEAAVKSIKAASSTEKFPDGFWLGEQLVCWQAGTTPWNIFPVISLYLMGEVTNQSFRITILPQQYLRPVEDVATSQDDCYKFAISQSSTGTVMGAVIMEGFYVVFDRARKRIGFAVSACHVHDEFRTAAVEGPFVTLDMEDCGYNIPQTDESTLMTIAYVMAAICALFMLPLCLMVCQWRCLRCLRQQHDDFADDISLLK
# SH-SY5Y cells [3] = experiment: Aβ25-35 peptide-induced cytotoxicity, MTT assay, SH-SY5Y cells; conditions: 1–30 μmol/L, Aβ25-35 5 μmol/L, 3 h
# Aβ1-42 = molecular target: T2, Aβ1-42 (Homo sapiens, UniProt P05067); experiment: biochemical; conditions: ± SEM; 50 μmol/L Aβ, 30°C, 24 h, ThT; highest tested concentration 50 μmol/L; read-out: IC50 Aβ1-42 self-aggregation
# T2 construct: 1,1,1,3,3,3-hexafluoro-2-propanol pretreated Aβ1-42 samples (Bachem AG, Switzerland); purchased Bachem AG, Switzerland
# T2 sequence (P05067 672-713 limits assumed): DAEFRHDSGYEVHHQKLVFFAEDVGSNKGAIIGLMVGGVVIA
# SH-SY5Y cells [4] = experiment: Aβ1-42 oligomer-induced cytotoxicity, MTT assay, SH-SY5Y cells; type: cell-based; conditions: Homo sapiens; for IC50: 3 h, read-out: IC50 Aβ1-42 oligomer toxicity SH-SY5Y cells; for inhibition at 30 µM: read-out: toxicity inhibition
# SH-SY5Y cells [5] = experiment: Aβ1-42 oligomer-induced intracellular ROS formation (DCFH-DA, DHE); type: cell-based, human; conditions: 3–30 μmol/L, 3 h pretreatment, Aβ1-42 oligomers 5 μmol/L
# Procedure: The intracellular hydrogen peroxide and superoxide anion formation induced by Aβ1-42 oligomer at SH-SY5Y cell level was determined using, respectively, the probe 2′,7′-dichlorodihydrofluorescein diacetate (DCFH-DA, λexc = 485 nm, λem = 535 nm), and dihydroethidium (DHE, λexc = 380 nm, λem = 445 nm). SH-SY5Y cells were cultured in BD Falcon™ 8-well Culture slides (surface area 0.7 cm^2/well) at 1 × 10^4 cells/well for 24 h. The cells were then treated for 3 h with various concentrations of compounds (3–30 μmol/L) at 37°C prior to the treatment of 3 h with Aβ1-42 oligomer (5 μmol/L). At the end of treatment, the cells were washed and incubated with DCFH-DA (5 μmol/L) or DHE (10 μmol/L) for 30 min in the dark. After removal of the probes, cells were washed with PBS and incubated with DMEM serum free for 1 h at 37°C. Intracellular ROS formation was measured under a fluorescence microscope (Zeiss Axio Imager M1). Fluorescence images were captured with an AxioVision image recording system computer. Four randomly selected areas with 50–100 cells in each were analyzed and the values obtained are expressed as fold increases in hydrogen peroxide and superoxide anion versus untreated cells.
# THP-1 cells [6] = experiment: Aβ-induced toxicity (Aβ1-42 oligomers, Aβ25-35), MTT assay, THP-1 cells; type: cell-based, human; conditions: 1–30 μmol/L, Aβ 5 μmol/L, 3 h
# SH-SY5Y cells [7] = experiment: t-BuOOH-induced intracellular ROS formation (DCFH-DA, DHE); type: cell-based, human; conditions: 3–30 μmol/L, 3 h pretreatment, t-BuOOH 50 μmol/L
# Procedure: As above, the intracellular hydrogen peroxide and superoxide anion formation induced by tert-butyl hydroperoxide (t-BuOOH) at SH-SY5Y cell level was determined using, respectively, the probes DCFH-DA and DHE. Briefly, SH-SY5Y cells were cultured in 96-well microtiter plates at 3 × 10^4 cells/well for 24 h. The medium was then removed and the cells were treated for 3 h with various concentrations of compounds (3–30 μmol/L) at 37°C. After treatment, the cells were washed with PBS and then incubated with DCFH-DA (5 μmol/L) or DHE (10 μmol/L) in PBS at 37°C in 5% CO2 for 30 min. After removal of the probes and further washing, the cells were incubated with t-BuOOH (50 μmol/L) in PBS for 30 min. At the end of incubation, the green or red fluorescence of the cells from each well was measured with a spectrofluorometer (TECAN®, GENios). The results are expressed as fold increases in intracellular ROS evoked by exposure to t-BuOOH.
# THP-1 cells [8] = experiment: Aβ1-42 oligomer-induced NO and TNFα release; type: cell-based, human; conditions: 30 μmol/L
# Procedure: THP-1 cells were seeded in 96-well plates at 5 × 10^4 cells/well for 24 h. At the end of incubation, the medium was changed with a fresh one with AP2469 30 μmol/L for 3 h. The cells were then washed with PBS and incubated for a further 12 h with Aβ1-42 oligomer (5 μmol/L). The content of each well was then removed and centrifuged at 2500g for 10 min, and the supernatant was frozen at −20°C for the subsequent analysis of released NO and tumor necrosis factor alpha (TNFα). To determine the NO levels, 100 μL of supernatant was incubated with 100 μL of Griess reagent (Sigma Aldrich) in the dark at room temperature for 15 min. The intensity of the color that developed was then measured at 540 nm using a spectrophotometer (TECAN®, GENios). Values are reported as percent increases in treated cells versus untreated cells. The TNFα levels in 100 μL of supernatant were determined by Ray Bio® ELISA kit according to the manufacturer's instructions (Ray Biotech, Inc., GA). The concentration of TNFα levels was calculated from a TNFα standard curve standard of 25–6000 pg/mL and the values are reported as percent increases in treated cells versus untreated cells.
# human recombinant AChE = human recombinant AChE (Homo sapiens, UniProt P22303); experiment: biochemical; conditions: ± SEM; 20 min preincubation at 37°C, pH 8.0; read-out: IC50 hAChE
# human recombinant AChE, sequence (P22303 32-614): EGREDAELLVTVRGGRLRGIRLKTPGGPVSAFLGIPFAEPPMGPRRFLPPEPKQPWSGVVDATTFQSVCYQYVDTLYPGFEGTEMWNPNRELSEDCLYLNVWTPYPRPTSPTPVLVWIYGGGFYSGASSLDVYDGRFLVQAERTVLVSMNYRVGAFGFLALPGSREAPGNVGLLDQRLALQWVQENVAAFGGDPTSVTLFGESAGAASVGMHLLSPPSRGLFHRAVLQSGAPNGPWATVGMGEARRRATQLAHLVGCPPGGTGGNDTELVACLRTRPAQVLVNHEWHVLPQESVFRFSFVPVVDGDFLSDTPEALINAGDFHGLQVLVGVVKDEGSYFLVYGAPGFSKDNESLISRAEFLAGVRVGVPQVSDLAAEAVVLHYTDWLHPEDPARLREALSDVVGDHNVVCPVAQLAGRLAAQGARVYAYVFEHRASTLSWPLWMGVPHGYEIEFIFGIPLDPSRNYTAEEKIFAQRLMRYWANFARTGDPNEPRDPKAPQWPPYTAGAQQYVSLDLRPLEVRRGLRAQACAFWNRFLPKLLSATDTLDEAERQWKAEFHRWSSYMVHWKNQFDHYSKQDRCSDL
# SH-SY5Y cells [9] = experiment: Aβ1-42 oligomer binding to the cell surface (Congo red assay), SH-SY5Y cells; type: cell-based, human; conditions: compound 30 μmol/L, Aβ1-42 oligomers 5 μmol/L, 30 min cotreatment
# Procedure: (§1) SH-SY5Y and THP-1 cells were seeded in 96-well plates at 5 × 10^3 cells/well and 5 × 10^4 cells/well, respectively, for 24 h. At the end of incubation, the medium was changed with a fresh one with Aβ1-42 oligomer (5 μmol/L) and various compounds at 30 μmol/L for 30 min and then washed twice with PBS. The residual Aβ1-42 oligomer cell complex was stained with 1 μmol/L of Congo red (CR) in PBS for 20 min and measured with a spectrophotometer (TECAN®, GENios) at 540 nm (bound CR). CR values are reported as percent increases in treated cells versus untreated cells.
# SH-SY5Y cells [10] = experiment: Total antioxidant activity in membrane and cytosolic fractions (ABTS decolorization); type: cell-based, human; conditions: SH-SY5Y treated 2 h, vs untreated cells
# [11] = molecular target: T3, BuChE derived from human serum (Homo sapiens, UniProt P06276); experiment: biochemical; type: biochemical; conditions: ± SEM; 20 min preincubation at 37°C, pH 8.0; read-out: IC50 hBuChE
# T3 construct: BuChE derived from human serum (Sigma Chemical, Milan, Italy); purchased Sigma Chemical, Milan, Italy; host or cells: human serum
# T3 sequence (P06276 29-602): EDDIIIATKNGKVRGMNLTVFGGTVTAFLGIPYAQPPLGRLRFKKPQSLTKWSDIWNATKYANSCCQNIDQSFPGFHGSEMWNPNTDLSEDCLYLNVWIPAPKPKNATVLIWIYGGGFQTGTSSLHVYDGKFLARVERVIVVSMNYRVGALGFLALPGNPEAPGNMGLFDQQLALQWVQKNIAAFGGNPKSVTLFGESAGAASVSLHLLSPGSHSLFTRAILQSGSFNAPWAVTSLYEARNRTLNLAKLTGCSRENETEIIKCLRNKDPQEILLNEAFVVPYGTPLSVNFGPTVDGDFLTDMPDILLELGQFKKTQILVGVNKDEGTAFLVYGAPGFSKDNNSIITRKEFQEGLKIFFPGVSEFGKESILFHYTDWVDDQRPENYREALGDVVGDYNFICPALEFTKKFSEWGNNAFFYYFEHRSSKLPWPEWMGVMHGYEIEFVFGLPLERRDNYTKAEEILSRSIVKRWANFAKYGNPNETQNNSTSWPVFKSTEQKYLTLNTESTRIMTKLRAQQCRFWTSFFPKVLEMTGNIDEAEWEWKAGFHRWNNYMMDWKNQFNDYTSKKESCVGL
# THP-1 cells [12] = experiment: Aβ1-42 oligomer binding to the cell surface (Congo red assay), THP-1 cells; type: cell-based, human; conditions: compound 30 μmol/L, Aβ1-42 oligomers 5 μmol/L, 30 min cotreatment
# Procedure: as §1
# BACE1 [13] = molecular target: T1, BACE1; experiment: Inhibition of BACE1 (FRET assay); type: biochemical; conditions: ± SEM, Panvera peptide substrate, pH 4.5
# [14] = test system: hAChE-induced amyloid aggregation; parameters: method as in Piazzi et al. [2003], [2007]; conditions: at 100 μmol/L concentration; ref Piazzi et al. [2003], [2007]; cited from earlier work
# [15] = THP-1, ± SEM, 5 μmol/L Aβ1-42 oligomers, 3 h, MTT, highest tested concentration 30 μmol/L
# [16] = SH-SY5Y, ± SEM, 5 μmol/L Aβ1-42 oligomers, MTT, highest tested concentration 30 μmol/L
Compound,cytotoxicity elicited by Aβ25-35 peptide in SH-SY5Y cells (SH-SY5Y cells [3]),IC50 (Aβ1-42) [µM],IC50 (THP-1 cells [1]; [15]) [µM],binding of Aβ1-42 oligomers with SH-SY5Y cells (CR assay) (SH-SY5Y cells [9]),IC50 (SH-SY5Y cells [4]; [16]) [µM],IC50 [11] [µM],binding of Aβ1-42 oligomers with THP-1 cells (CR assay) (THP-1 cells [12]),IC50 (BACE1 [13]),inhibition of hAChE-induced amyloid aggregation [14] [%],other results
"COc1ccc2c3c1O[C@H]1C[C@@H](O)C=C[C@@]31CCN(C)C2 [Galantamine, reference compound]",dose-dependent decrease,> 50,–,–,–,–,–,–,–,"IC50 (THP-1 cells [1]; THP-1, 3 h): > 30 µM; IC50 (BACE1 [2]; not active at the highest tested concentration (5 μmol/L), ref Mancini et al. [2007], read-out: IC50 BACE1): > 5 µM; IC50 (SH-SY5Y cells [4]; SH-SY5Y): 7.99 ± 0.91 µM; inhibition at 30 µM (SH-SY5Y cells [4]; SH-SY5Y): 58%"
"CCN(Cc1ccccc1)Cc1ccc(-c2cc3cc(O)c(O)cc3oc2=O)cc1 [AP2469, 3-{4-[(Benzylethylamino)-methyl]phenyl}-6,7-dihydroxychromen-2-one]",dose-dependent decrease,21.7 ± 3.4,8.18 ± 0.51,significantly reduced,7.5 ± 0.72,124 ± 13,significantly reduced,6.5 µM and 6.49 µM,–,"Aβ1-42 oligomer-induced hydrogen peroxide and superoxide anion formation (SH-SY5Y cells [5]): significantly inhibited; Aβ-induced toxicity in THP-1 cells (THP-1 cells [6]): significant inhibitor effects; ROS formation induced by t-BuOOH (SH-SY5Y cells [7]): significantly reduced; Aβ1-42 oligomer-induced TNFα release (THP-1 cells [8]; ELISA): inhibited; Aβ1-42 oligomer-induced NO release (THP-1 cells [8]; Griess reagent): reduced; IC50 (human recombinant AChE): 8.6 ± 0.21 µM; total antioxidant activity (TAA), membrane fraction (SH-SY5Y cells [10]; 3–30 μmol/L): significant only at the highest tested concentration; total antioxidant activity (TAA), cytosolic fraction (SH-SY5Y cells [10]; all tested concentrations (3–30 μmol/L)): significant TAA increase; inhibition at 30 µM (SH-SY5Y cells [4]; at 30 μmol/L, Aβ1-42 oligomers 5 μmol/L, SH-SY5Y cells): 93%"
CCN(Cc1ccccc1)Cc1ccc(-c2cc3cc(OC)c(OC)cc3oc2=O)cc1 [AP2243],–,> 50,> 30,did not modify,> 30,118 ± 16,did not modify,0.24 ± 0.03 µM,38,–
c1ccc2c(NCCCCCCCNc3c4c(nc5ccccc35)CCCC4)c3c(nc2c1)CCCC3 [bis(7)-tacrine],–,–,–,–,–,–,–,–,–,"IC50 (BACE1 [2]; noncompetitive BACE1 inhibitor, ref Fu et al. [2008], read-out: BACE1 inhibitory activity): 7.5 µM"
"COc1cc2cc(-c3ccc(CN(C)Cc4ccccc4)cc3)c(=O)oc2cc1OC [AP2238, 3-(4-{[Benzyl(methyl)amino]methyl}-phenyl)-6,7-dimethoxy-2H-2-chromenone]",–,> 50,–,–,–,–,–,–,35,–
